In ChEMBL document CHEMBL1201862, “PubChem BioAssay data set” (2004):
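Grown in 96-well plates, cells were treated for 48 hours with each compound at five concentrations. Insufficient inhibition: endpoint recorded as highest concentration tested. Here, GI50 denotes the concentration required for 50% inhibition of growth.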 The source made the active and inactive calls. No stated cut-off is given here; in the data, active = GI50 up to about 1.1 µM and inactive = higher.

Columns and labels:
Experiment in all cases: NCI tumour cell line growth inhibition, 48 h
RXF 631 = system: RXF 631
LXFL 529 = system: LXFL 529
SNB-78 = system: SNB-78
DMS-273 = system: DMS-273
DMS-114 = system: DMS-114
M19-MEL = system: M19-MEL
DLD-1 = system: DLD-1
HOP-18 = system: HOP-18
XF498 = system: XF498

Row | Structure (SMILES) | GI50 (RXF 631) | GI50 (LXFL 529) | GI50 (SNB-78) | GI50 (DMS-273) | GI50 (DMS-114) | GI50 (M19-MEL) | GI50 (DLD-1) | GI50 (HOP-18) | GI50 (XF498)
1 | COC1=CC(=O)c2c(ccc3ncnc(N)c23)C1=O | 4.82 µM (inactive) | 1.75 µM (inactive) | 2.36 µM (inactive) | 3.32 µM (inactive) | 1.77 µM (inactive) | 1.69 µM (inactive) | 2.08 µM (inactive) |  | 
2 | COC(=O)CCC(=O)C(CC(=O)OC)C(=O)CCC(=O)NCCc1ccccc1 (stereo not drawn) | > 100 µM (inactive) | > 100 µM (inactive) | > 100 µM (inactive) | > 100 µM (inactive) |  |  |  | > 100 µM (inactive) | 
3 | N=c1n(CC(=O)NC23CC4CC(CC(C4)C2)C3)c2ccccc2n1CC(=O)NC12CC3CC(CC(C3)C1)C2 |  | 2.04 µM (inactive) | 2.91 µM (inactive) | 1.83 µM (inactive) | 1.93 µM (inactive) | 1.72 µM (inactive) | 1.9 µM (inactive) | 2.03 µM (inactive) | 1.52 µM (inactive)
4 | N=C(CC(=O)Nc1ccc(Cl)cc1)Nc1ccccc1 |  | > 100 µM (inactive) | > 100 µM (inactive) | > 100 µM (inactive) |  | > 100 µM (inactive) | > 100 µM (inactive) |  | > 100 µM (inactive)
5 | O=c1c2cc(Br)cc(Br)c2nc(CCCl)n1-c1ccc(O)c([N+](=O)[O-])c1 |  | 16.1 µM (inactive) | 32.4 µM (inactive) | 21.5 µM (inactive) | 19.1 µM (inactive) | 15.9 µM (inactive) | 18.9 µM (inactive) | 16.7 µM (inactive) | 
6 | C/C(=N/NS(=O)(=O)c1ccc(C)cc1)c1cccc[n+]1[O-] | > 100 µM (inactive) | > 100 µM (inactive) | > 100 µM (inactive) | > 100 µM (inactive) | > 100 µM (inactive) | > 100 µM (inactive) | > 100 µM (inactive) | > 100 µM (inactive) | > 100 µM (inactive)
7 | Cc1cc(C)c(C(=O)c2no[n+]([O-])c2C(=O)c2c(C)cc(C)c(Br)c2C)c(C)c1Br | 13.6 µM (inactive) | 11.2 µM (inactive) | 18.6 µM (inactive) | 18.5 µM (inactive) | 10.8 µM (inactive) | 12.6 µM (inactive) | 14.2 µM (inactive) |  | 
8 | O=C1/C(=C/c2ccc3c(c2)OCCO3)CCC/C1=C\c1ccc2c(c1)OCCO2 |  | 37.5 µM (inactive) | 26.8 µM (inactive) | 8.99 µM (inactive) |  | 18.2 µM (inactive) | 15.8 µM (inactive) | 23.9 µM (inactive) | 
9 | C/C(CC(=O)CCCC(=O)Nc1ccc(Cl)cc1Cl)=N/NC(=O)CC#N | > 100 µM (inactive) | > 100 µM (inactive) | > 100 µM (inactive) | > 100 µM (inactive) | > 100 µM (inactive) | > 100 µM (inactive) | > 100 µM (inactive) | > 100 µM (inactive) | > 100 µM (inactive)
10 | O=C(O)c1ccc2c(c1)C(=O)N(c1ccc(S(=O)(=O)c3ccc(N4C(=O)c5ccc(C(=O)O)cc5C4=O)cc3)cc1)C2=O |  | > 100 µM (inactive) | > 100 µM (inactive) | > 100 µM (inactive) | > 100 µM (inactive) | > 100 µM (inactive) |  |  | > 100 µM (inactive)
11 | CCOc1ccccc1NC(=O)CSc1nnc(Cc2ccccc2)o1 |  | 16.6 µM (inactive) | 81.5 µM (inactive) | 22.7 µM (inactive) | 17.6 µM (inactive) | 34.5 µM (inactive) | 23.4 µM (inactive) | 20.4 µM (inactive) | 
12 | OC12c3ccccc3C1(N1CCOCC1)CCCCC21OCCCO1 (stereo not drawn) |  | > 100 µM (inactive) | > 100 µM (inactive) | > 100 µM (inactive) | > 100 µM (inactive) |  | > 100 µM (inactive) | > 100 µM (inactive) | 
13 | CCCCCCCCCCCc1nnc(N)o1 | 82 µM (inactive) | > 100 µM (inactive) | > 100 µM (inactive) | > 100 µM (inactive) |  | > 100 µM (inactive) | > 100 µM (inactive) |  | > 100 µM (inactive)
14 | CC1CC#CCOC(=O)CCCC1=O (stereo not drawn) |  | > 100 µM (inactive) | > 100 µM (inactive) | > 100 µM (inactive) | > 100 µM (inactive) | > 100 µM (inactive) | > 100 µM (inactive) | > 100 µM (inactive) | > 100 µM (inactive)
15 | CCCCC1NC=Nc2c1ccc1c2[nH]c2ccccc21 (stereo not drawn) | 2.6 µM (inactive) | 1.88 µM (inactive) | 13 µM (inactive) | 1.7 µM (inactive) | 1.76 µM (inactive) | 3.26 µM (inactive) | 2.47 µM (inactive) | 10.2 µM (inactive) | 1.89 µM (inactive)
16 | CCn1c(=O)nc2n(-c3ccc(SC)cc3)c3ccccc3nc-2c1=O | > 100 µM (inactive) | > 100 µM (inactive) | > 100 µM (inactive) | 71.1 µM (inactive) | 69.7 µM (inactive) | 30.7 µM (inactive) | > 100 µM (inactive) | > 100 µM (inactive) | 
17 | COP12(OC)NC(=O)OC1(C(F)(F)F)c1ccccc1O2 (stereo not drawn) |  | > 100 µM (inactive) | > 100 µM (inactive) | > 100 µM (inactive) | > 100 µM (inactive) | > 100 µM (inactive) | > 100 µM (inactive) | 52.7 µM (inactive) | > 100 µM (inactive)
18 | COc1cc2ccnc(-c3c4ccccc4c(N)c4c(OC)c(OC)ccc34)c2cc1OC |  | 3.6 µM (inactive) | 3.66 µM (inactive) | 1.53 µM (inactive) | 2.59 µM (inactive) | 3.87 µM (inactive) | 3.04 µM (inactive) |  | 2.64 µM (inactive)
19 | O=P1(c2ccccc2)CCCCC1 |  | > 100 µM (inactive) | > 100 µM (inactive) | > 100 µM (inactive) | > 100 µM (inactive) |  | > 100 µM (inactive) | > 100 µM (inactive) | < 0.01 µM (active)
20 | CC(=O)OCC1OC(n2cccnc2=O)C(OC(C)=O)C1OC(C)=O (stereo not drawn) | > 100 µM (inactive) | > 100 µM (inactive) | > 100 µM (inactive) | > 100 µM (inactive) | > 100 µM (inactive) | > 100 µM (inactive) | > 100 µM (inactive) | > 100 µM (inactive) | > 100 µM (inactive)
21 | CC(=O)OC1(C)C(=O)OC1(C)C(C)=O (stereo not drawn) | > 100 µM (inactive) | > 100 µM (inactive) | > 100 µM (inactive) | > 100 µM (inactive) | > 100 µM (inactive) | > 100 µM (inactive) | > 100 µM (inactive) | > 100 µM (inactive) | 
22 | Cc1cccc(O)c(=O)c1 |  | 29.9 µM (inactive) | > 100 µM (inactive) | 7.41 µM (inactive) | 5.92 µM (inactive) | 43.5 µM (inactive) | 24.1 µM (inactive) | > 100 µM (inactive) | 
23 | COc1ccc(NC(=O)C2C(=O)N(c3ccc(OC)cc3)C(=O)/C2=N\NC(N)=O)cc1 (stereo not drawn) |  | 39.9 µM (inactive) | 57.1 µM (inactive) | 43.6 µM (inactive) | 63.7 µM (inactive) |  |  | 21.2 µM (inactive) | 
24 | COc1cccc(C(=O)C2C(=O)N(C)CCc3ccccc32)c1OC (stereo not drawn) | > 100 µM (inactive) | > 100 µM (inactive) |  | > 100 µM (inactive) | > 100 µM (inactive) | > 100 µM (inactive) | > 100 µM (inactive) | > 100 µM (inactive) | > 100 µM (inactive)
25 | CS(=O)(=O)NNS(=O)(=O)c1ccc(Br)cc1 |  | > 100 µM (inactive) | > 100 µM (inactive) | > 100 µM (inactive) | > 100 µM (inactive) | > 100 µM (inactive) | > 100 µM (inactive) | > 100 µM (inactive) | > 100 µM (inactive)
26 | Cc1ccc2nc3c(Cl)cc(=O)cc-3sc2c1 | 30.8 µM (inactive) | 18.7 µM (inactive) | 39.2 µM (inactive) | 19.7 µM (inactive) | 20.4 µM (inactive) | 19.7 µM (inactive) | > 10 µM (inactive) | 2.96 µM (inactive) | 
27 | CCOC(=O)c1ccc(-n2c(SCC)nc3sc(C)c(C)c3c2=O)cc1 |  |  | > 100 µM (inactive) | > 100 µM (inactive) | > 100 µM (inactive) |  | > 100 µM (inactive) | > 100 µM (inactive) | > 100 µM (inactive)
28 | CC1(C)CCCC2(C)[C@@H]1CC[C@@]13CC(=O)[C@@](C)(CC[C@@H]21)C3 (stereo partly drawn) | 78.3 µM (inactive) | 80.2 µM (inactive) | > 100 µM (inactive) | 55.6 µM (inactive) | 46 µM (inactive) | 31.5 µM (inactive) | > 100 µM (inactive) |  | 
